Measurements reported in patent US7989447B2, “1,5 and 3,6-substituted indole compounds having NOS inhibitory activity” (NeurAxon, Inc., priority 2006, dated 2011).
Where two headings read alike, the source gives them in different places.

How the values were obtained:
[1] = biological target: human endothelial constitutive NOS (eNOS) (Homo sapiens, UniProt P29474); experiment: eNOS (Human) enzyme assay, radiometric conversion of [3H]L-arginine to [3H]L-citrulline; type: biochemical; settings: recombinant human enzyme, 37° C., 45 min
Experimental: (§1) Recombinant human inducible NOS (iNOS), human endothelial constitutive NOS (eNOS) or human neuronal constitutive NOS(nNOS) were produced in Baculovirus-infected Sf9 cells (ALEXIS). In a radiometric method, NO synthase activity was determined by measuring the conversion of [^3H]L-arginine to [^3H]L-citrulline. To measure iNOS, 10 μL of enzyme was added to 100 μL of 100 mM HEPES, pH=7,4, containing 1 mM CaCl2, 1 mM EDTA, 1 mM dithiotheitol, 1 μM FMN, 1 μM FAD, 10 μM tetrahydrobiopterin, 120 μM NADPH, and 100 nM CaM. To measure eNOS or nNOS, 10 μL of enzyme was added to 100 μL of 40 mM HEPES, pH=7.4, containing 2.4 mM CaCl2, 1 mM MgCl2, 1 mg/mL BSA, 1 mM EDTA, 1 mM dithiothreitol, 1 μM FMN, 1 μM FAD, 10 μM tetrahydrobiopterin, 1 mM NADPH, and 1.2 μM CaM.
(§2) To measure enzyme inhibition, a 15 μL solution of a test substance was added to the enzyme assay solution, followed by a pre-incubation time of 15 min at RT. The reaction was initiated by addition of 20 μL L-arginine containing 0.25 μCi of [^3H]arginine/mL and 24 μM L-arginine. The total volume of the reaction mixture was 150 μL in every well. The reactions were carried out at 37° C. for 45 min. The reaction was stopped by adding 20 μL of ice-cold buffer containing 100 mM HEPES, 3 mM EGTA, 3 mM EDTA, pH=5.5. [^3H]L-citrulline was separated by DOWEX (ion-exchange resin DOWEX 50 W X 8-400, SIGMA) and the DOWEX was removed by spinning at 12,000 g for 10 min in the centrifuge. An 70 μL aliquot of the supernatant was added to 100 μL of scintillation fluid and the samples were counted in a liquid scintillation counter (1450 Microbeta Jet, Wallac). […] All assays were performed at least in duplicate.

[2] = biological target: human neuronal constitutive NOS (nNOS) (Homo sapiens, UniProt P29475); experiment: nNOS (Human) enzyme assay, radiometric conversion of [3H]L-arginine to [3H]L-citrulline; type: biochemical; settings: for Ratio e/n: human eNOS / human nNOS
Sequence of human neuronal constitutive NOS (nNOS) (P29475 whole entry): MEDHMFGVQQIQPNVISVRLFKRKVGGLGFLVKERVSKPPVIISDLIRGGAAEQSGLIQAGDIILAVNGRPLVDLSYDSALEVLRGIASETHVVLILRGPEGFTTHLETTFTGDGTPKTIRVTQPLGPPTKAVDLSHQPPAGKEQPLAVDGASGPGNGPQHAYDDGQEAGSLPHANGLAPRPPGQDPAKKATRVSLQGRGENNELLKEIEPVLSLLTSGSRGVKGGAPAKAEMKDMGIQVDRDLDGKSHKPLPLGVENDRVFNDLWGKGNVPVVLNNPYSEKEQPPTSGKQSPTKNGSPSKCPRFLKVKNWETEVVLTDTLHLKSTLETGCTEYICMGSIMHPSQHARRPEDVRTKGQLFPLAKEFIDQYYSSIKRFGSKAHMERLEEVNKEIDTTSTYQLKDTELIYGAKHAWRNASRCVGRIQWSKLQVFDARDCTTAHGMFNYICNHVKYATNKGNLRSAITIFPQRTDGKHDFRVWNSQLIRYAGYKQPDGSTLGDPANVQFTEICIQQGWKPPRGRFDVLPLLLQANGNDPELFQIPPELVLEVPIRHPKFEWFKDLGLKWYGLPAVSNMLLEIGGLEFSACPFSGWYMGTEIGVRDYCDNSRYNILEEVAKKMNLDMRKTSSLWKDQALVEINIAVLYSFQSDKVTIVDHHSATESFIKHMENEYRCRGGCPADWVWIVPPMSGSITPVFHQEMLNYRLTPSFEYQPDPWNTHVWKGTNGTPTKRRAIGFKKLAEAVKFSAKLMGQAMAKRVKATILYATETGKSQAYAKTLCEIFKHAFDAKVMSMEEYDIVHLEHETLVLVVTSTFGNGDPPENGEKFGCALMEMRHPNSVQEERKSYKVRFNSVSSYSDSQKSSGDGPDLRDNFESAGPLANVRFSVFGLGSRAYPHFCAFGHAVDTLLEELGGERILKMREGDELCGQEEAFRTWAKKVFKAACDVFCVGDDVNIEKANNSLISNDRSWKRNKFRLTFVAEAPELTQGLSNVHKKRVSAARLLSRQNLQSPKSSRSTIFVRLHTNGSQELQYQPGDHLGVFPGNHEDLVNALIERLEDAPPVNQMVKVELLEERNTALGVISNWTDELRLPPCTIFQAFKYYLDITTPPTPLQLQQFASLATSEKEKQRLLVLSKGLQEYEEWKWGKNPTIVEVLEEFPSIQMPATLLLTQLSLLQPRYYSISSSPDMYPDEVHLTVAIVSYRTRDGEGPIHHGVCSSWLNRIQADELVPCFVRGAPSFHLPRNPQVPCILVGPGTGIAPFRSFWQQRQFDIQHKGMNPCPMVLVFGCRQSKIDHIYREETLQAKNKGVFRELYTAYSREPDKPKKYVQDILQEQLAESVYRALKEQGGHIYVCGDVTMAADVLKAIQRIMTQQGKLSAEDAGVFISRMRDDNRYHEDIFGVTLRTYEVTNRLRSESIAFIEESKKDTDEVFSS
Experimental: To measure enzyme inhibition, a 15 μL solution of a test substance was added to the enzyme assay solution, followed by a pre-incubation time of 15 min at RT. […] The total volume of the reaction mixture was 150 μL in every well. The reactions were carried out at 37° C. for 45 min. The reaction was stopped by adding 20 μL of ice-cold buffer containing 100 mM HEPES, 3 mM EGTA, 3 mM EDTA, pH=5.5. [^3H]L-citrulline was separated by DOWEX (ion-exchange resin DOWEX 50 W X 8-400, SIGMA) and the DOWEX was removed by spinning at 12,000 g for 10 min in the centrifuge. […] All assays were performed at least in duplicate. Standard deviations were 10% or less.

[3] = biological target: human inducible NOS (iNOS) (Homo sapiens, UniProt P35228); experiment: iNOS (Human) enzyme assay, radiometric conversion of [3H]L-arginine to [3H]L-citrulline; type: biochemical; settings: recombinant human enzyme, 37° C., 45 min
Experimental: as §1, §2

[4] = tested on: cardiogenic shock patients; settings: randomized trial of 30 patients; reduced from 67%; cited from earlier work
[5] = tested on: migraine patients; settings: open pilot study; cited from earlier work
[6] = tested on: rats after L5/L6 spinal nerve ligation; experiment: Chung Spinal Nerve Ligation (SNL) model of neuropathic pain, thermal hyperalgesia; type: in vivo, rat; settings: one dose 10 or 60 mg/kg i.p.
Experimental: The efficacy of compound 107 for the treatment of neuropathic pain was assessed using standard animal models predictive of anti-hyperalgesic and anti-allodynic activity induced by a variety of methods.
The experimental designs for the Chung Spinal Nerve Ligation SNL Model assay for neuropathic pain are depicted in FIG. 1. Nerve ligation injury was performed according to the method described by Kim and Chung (Kim and Chung, Pain 50:355-363, 1992). This technique produces signs of neuropathic dysesthesias, including tactile allodynia, thermal hyperalgesia, and guarding of the affected paw. Rats were anesthetized with halothane and the vertebrae over the L4 to S2 region were exposed. The L5 and L6 spinal nerves were exposed, carefully isolated, and tightly ligated with 4-0 silk suture distal to the DRG. After ensuring homeostatic stability, the wounds were sutured, and the animals allowed to recover in individual cages. Sham-operated rats were prepared in an identical fashion except that the L5/L6 spinal nerves were not ligated. […] After a period of recovery following the surgical intervention, rats show enhanced sensitivity to painful and normally non-painful stimuli.

[7] = tested on: migraine patients; settings: single i.v. administration; cited from earlier work
[8] = tested on: patients with persistent shock; settings: up to 30 days, 11 patients with persistent shock; cited from earlier work
[9] = recombinant human enzyme, 37° C., 45 min, read-out: Human nNOS

`CCN(CC)CCn1c(Cc2ccc(OC(F)(F)F)cc2)cc2cc(NC(=N)c3cccs3)ccc21` [Compound 11, N-(1-(2-(Diethylamino)ethyl)-2-(4-(trifluoromethoxy)benzyl)-1H-indol-5-yl)thiophene-2-carboximidamide] showed an IC50 ([1]; Human eNOS (μM)) of 4.5 µM, a Ratio e/n [2] of 5.62 and an IC50 [2, 9] of 800 nM. It also gave an IC50 [3] of 17 µM.

With `CCCN[C@H]1CC[C@@H](c2c[nH]c3cc(NC(=N)c4cccs4)ccc32)CC1` [Compound 137, N-(3-((1s,4s)-4-(propylamino)cyclohexyl)-1H-indol-6-yl)thiophene-2-carboximidamide] the IC50 ([1]; read-out: Human eNOS) was 5.54 µM, the Ratio e/n [2] was 27.02 and the IC50 [2, 9] was 200 nM. For the same molecule, the IC50 [3] was 8.26 µM.

In the case of `COC(=O)[C@@H](N)CCCNC(=N)N[N+](=O)[O-]` [L-NAME], the patient mortality [4] is given as 27%.

`N=C(Nc1ccc2c(ccn2C2CN3CCC2CC3)c1)c1cccs1` (centres unmarked) [Compound 71, N-(1-(Quinuclidin-3-yl)-1H-indol-5-yl)thiophene-2-carboximidamide] gave an IC50 ([1]; read-out: Human eNOS) of 12.1 µM, a Ratio e/n [2] of 32.79 and an IC50 [2, 9] of 360 nM. For the same molecule, the IC50 [3] was 29 µM.

Molecule `CN1CCCC1CCn1ccc2cc(NC(=N)N[N+](=O)[O-])ccc21` (centres unmarked) [Compound 59, 1-(1-(2-(1-methylpyrrolidin-2-yl)ethyl)-1H-indol-5-yl)-3-nitroguanidine] has an IC50 ([1]; read-out: Human eNOS) of 8.65 µM, a Ratio e/n [2] of 6.00 and an IC50 [2, 9] of 1440 nM. The “Human iNOS (μM)” value [3] was “Not Active”.

For `C/C1=C2/[N-][C@H]([C@H](CC(N)=O)[C@@]2(C)CCC(=O)NC[C@@H](C)OP(=O)([O-])O[C@H]2[C@@H](O)[C@@H](n3cnc4cc(C)c(C)cc43)O[C@@H]2CO)[C@]2(C)N=C(/C(C)=C3N=C(/C=C4N=C1[C@@H](CCC(N)=O)C\4(C)C)[C@@H](CCC(N)=O)[C@]\3(C)CC(N)=O)[C@@H](CCC(N)=O)[C@]2(C)CC(N)=O.[Co+3].[OH-]` [hydroxycobalamin], the “patients with a 50% reduction in the frequency of migraine attack” value [5] is given as 53%.

Work on `CN1CCCC1CCn1c(Cc2ccc(OC(F)(F)F)cc2)cc2cc(NC(=N)c3cccs3)ccc21` (centres unmarked) [Compound 14, N-(1-(2-(1-methylpyrrolidin-2-yl)ethyl)-2-(4-(trifluoromethoxy)benzyl)-1H-indol-5-yl)thiophene-2-carboximidamide] yielded an IC50 ([1]; read-out: Human eNOS) of 1.52 µM, a Ratio e/n [2] of 4.90 and an IC50 [2, 9] of 310 nM. The IC50 [3] was 93 µM.

For `N=C(Nc1ccc2c(C3CN4CCC3CC4)c[nH]c2c1)c1cccs1` (centres unmarked) [Compound 112, N-(3-(quinuclidin-3-yl)-1H-indol-6-yl)thiophene-2-carboximidamide], the IC50 ([1]; read-out: Human eNOS) was 31.4 µM, the IC50 [2] was 1130 nM and the Ratio e/n [2] was 27.78. The IC50 [3] was 0.4 µM.

In the case of `CN1CC=C(c2c[nH]c3cc(NC(=N)c4cccs4)ccc23)CC1` [Compound 107, N-[3-(1-methyl-1,2,3,6-tetrahydro-pyridin-4-yl)-1H-indol-6-yl]-thiophene-2-carboxamidine], the “antihyperalgesic effect (reversal of thermal hyperalgesia)” value [6] is reported as “clear antihyperalgesic effect”, the IC50 ([1]; read-out: Human eNOS) is reported as 29 µM and the Ratio e/n [2] is reported as 26.36. The IC50 [2, 9] was 1100 nM and the IC50 [3] was 12 µM.

Work on `CCNC1CCC(c2c[nH]c3cc(NC(=N)c4cccs4)ccc23)CC1` (centres unmarked) [Compound 129] yielded an IC50 ([1]; read-out: Human eNOS) of 14.9 µM, a Ratio e/n [2] of 57.08 and an IC50 [2, 9] of 260 nM. For the same molecule, the IC50 [3] was 4.2 µM.

In the case of `CN=C(N)NCCC[C@H](N)C(=O)O.Cl` [L-NMMA, L-N^G methylarginine hydrochloride], the response rate [7] is listed as 67% and the survival rate [8] is listed as 72%.

`CN1CCCC(n2ccc3cc(NC(=N)c4cccs4)ccc32)CC1` (centres unmarked) [Compound 58, N-(1-(1-methylazepan-4-yl)-1H-indol-5-yl)thiophene-2-carboximidamide] gave an IC50 ([1]; read-out: Human eNOS) of 11.5 µM, a Ratio e/n [2] of 93.49 and an IC50 [2, 9] of 120 nM. The IC50 [3] was 7.6 µM.

`CN1CCC(c2c[nH]c3cc(NC(=N)c4cccs4)ccc23)CC1` [Compound 108, N-[3-(1-methyl-piperidin-4-yl)-1H-indol-6-yl]-thiophene-2-carboxamidine] gave an IC50 ([1]; read-out: Human eNOS) of 17 µM, a Ratio e/n [2] of 23.94 and an IC50 [2, 9] of 710 nM. It also gave an IC50 [3] of 9.3 µM.

`CCNC1CC=C(c2c[nH]c3cc(NC(=N)c4cccs4)ccc23)CC1` (centres unmarked) [Compound 132, N-(3-(4-(Ethylamino)cyclohex-1-enyl)-1H-indol-6-yl)thiophene-2-carboximidamide] showed an IC50 ([1]; read-out: Human eNOS) of 17.4 µM, a Ratio e/n [2] of 23.83 and an IC50 [2, 9] of 730 nM. The IC50 [3] was 1.93 µM.

With `CN1C2CCC1CC(n1ccc3cc(NC(=N)c4cccs4)ccc31)C2` (centres unmarked) [Compound 86, N-(1-(8-methyl-8-azabicyclo[3.2.1]octan-3-yl)-1H-indol-5-yl)thiophene-2-carboximidamide] the IC50 ([1]; read-out: Human eNOS) was 18.9 µM, the Ratio e/n [2] was 24.70 and the IC50 [2, 9] was 760 nM. It also gave an IC50 [3] of 11 µM.
